Consider 16 molecules from patent US11369565B2, “Amino-pyrimidine skeletal muscle modulators” (Cytokinetics, Inc., priority 2010, dated 2022).

This experiment deals with rabbit skeletal myofibrils (approximately 90% fast fibers). Briefly: Activation of fast skeletal myofibrils (PUMA coupled-enzyme ATPase assay at pCa25). The note with it: concentration at which the compound increased the enzymatic activity by 40%; calcium at pCa25; PM12 buffer pH 6.8. Format: biochemical. In outline:
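Detergent-washed rabbit psoas myofibrils tested at calcium giving 25% of maximal rate (pCa25). ATPase activity tracked by pyruvate kinase/lactate dehydrogenase coupling, NADH oxidation read as absorbance at 340 nm, in PM12 buffer (12 mM Pipes, 2 mM MgCl2, 1 mM DTT, pH 6.8).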
On to `CC(C)(Nc1ncc(Br)cn1)c1ncccc1F` [(5-bromopyrimidin-2-yl)[1-(3-fluoro(2-pyridyl))-isopropyl]amine], for which the “Mean AC1.4” value is “D (D=>20 uM)”.

For the molecule `NC(=O)c1cccc(-c2cnc(NC[C@]3(c4ncccc4F)C[C@H](F)C3)nc2)c1O` [3-[2-({[3-fluoro-1-(3-fluoro(2-pyridyl))cyclobutyl]methyl)amino)pyrimidin-5-yl]-2-hydroxybenzamide], the “Mean AC1.4” value was “A (A=<1 uM)”.

With `CC(C)(CNc1ncc2c(n1)CCN(C(=O)C(N)=O)C2)c1ccc(F)cc1` [2-(2-{[2-(4-fluorophenyl)-2-methylpropyl]amino}(5,6,7,8-tetrahydropyridino[4,3-d]pyrimidin-6-yl))-2-oxoacetamide], the “Mean AC1.4” value is “D (D=>20 uM)”.

In the case of `CC(C)(Nc1ncc(-c2ccc3[nH]ncc3c2)cn1)c1ncccc1Cl` [(5-(1H-indazol-5-yl)]pyrimidin-2-yl)[1-(3-chloro(2-pyridyl))-isopropyl]amine], the “Mean AC1.4” value is “A (A=<1 uM)”.

Consider `COc1ccc(Cl)c(C(C)(C)Nc2ncc(-c3cccc(C(N)=O)c3)cn2)n1` [3-(2-{[1-(3-chloro-6-methoxy(2-pyridyl))-isopropyl]amino}pyrimidin-5-yl)benzamide], for which the “Mean AC1.4” value is “A (A=<1 uM)”.

On to `CC(C)(Nc1ncc(-c2cc(C(N)=O)on2)cn1)c1ncccc1Cl` [3-(2-{[1-(3-chloro(2-pyridyl))-isopropyl]amino}pyrimidin-5-yl)isoxazole-5-carboxamide], for which the “Mean AC1.4” value was “C (C=10-20 uM)”.

For the molecule `COc1cccnc1C(C)(C)Nc1ncc(-c2cc(C(N)=O)ccc2F)cn1` [4-fluoro-3-(2-{[1-(3-methoxy(2-pyridyl))-isopropyl]amino}pyrimidin-5-yl)benzamide], the “Mean AC1.4” value was “C (C=10-20 uM)”.

In the case of `CNc1nc(NC[C@]2(c3ncccc3F)C[C@H](F)C2)ncc1-c1ccccc1` [{[3-fluoro-1-(3-fluoro(2-pyridyl))cyclobutyl]methyl}[4-(methylamino)-5-phenylpyrimidin-2-yl]amine], the “Mean AC1.4” value is on record as “D (D=>20 uM)”.

As to `CC(C)(Nc1ncc(-c2ncc(CNC(=O)C3(N)CC3)s2)cn1)c1ncccc1F` [(aminocyclopropyl)-N-{[2-(2-{[1-(3-fluoro(2-pyridyl))-isopropyl]amino}pyrimidin-5-yl)(1,3-thiazol-5-yl)]methyl)carboxamide], the “Mean AC1.4” value is given as “D (D=>20 uM)”.

Turning to `CC(C)(Nc1ncc(-c2ncno2)cn1)c1ncccc1Cl` [[1-(3-chloro(2-pyridyl))-isopropyl](5-(1,2,4-oxadiazol-5-yl)pyrimidin-2-yl)amine], the “Mean AC1.4” value is “D (D=>20 uM)”.

For the molecule `NC(=O)c1n[nH]c2ccc(-c3cnc(NC4(c5ncccc5F)CCC4)nc3)cc12` [5-(2-{[(3-fluoro-2-pyridyl)cyclobutyl]amino}pyrimidin-5-yl)-1H-indazole-3-carboxamide], the “Mean AC1.4” value is on record as “A (A=<1 uM)”.

Regarding `COC(=O)c1ccc(O)c(-c2cnc(NC[C@]3(c4ncccc4F)C[C@H](F)C3)nc2)c1` [methyl 3-[2-({[3-fluoro-1-(3-fluoro(2-pyridyl))cyclobutyl]methyl)amino)pyrimidin-5-yl]-4-hydroxybenzoate], the “Mean AC1.4” value was “A (A=<1 uM)”.

Turning to `NC(=O)c1ccc(F)c(-c2cnc(NCC3(c4ncccc4Cl)CC(F)(F)C3)nc2)c1` [3-[2-({[1-(3-chloro(2-pyridyl))-3,3-difluorocyclobutyl]methyl}amino)pyrimidin-5-yl]-4-fluorobenzamide], the “Mean AC1.4” value was “A (A=<1 uM)”.

In the case of `CC(C)(CNc1ncc(Br)cn1)c1ccc(F)cc1` [5-Bromo-N-(2-(4-fluorophenyl)-2-methylpropyl)pyrimidin-2-amine], the “Mean AC1.4” value is given as “D (D=>20 uM)”.

For `CSc1ccccc1C(C)(C)Nc1ncc(-c2cccc(C#N)c2)cn1` [3-(2-{[1-methyl-1-(2-methylthiophenyl)ethyl]amino}pyrimidin-5-yl)benzenecarbonitrile], the “Mean AC1.4” value was “A (A=<1 uM)”.

As for `NC(=O)c1cccc(-c2cnc(N)nc2)c1` [3-(2-aminopyrimidin-5-yl)benzamide], the “Mean AC1.4” value is “D (D=>20 uM)”.
